Source: patent US6930103B2, “Use of vasopeptidase inhibitors in the treatment of metabolic diseases, nephropathy and advanced glycation end-product associated diseases” (Aventis Pharma Deutschland GmbH, priority 2002, dated 2005)

Legend:
fat ZDF rats = experiment: Histological examination of kidneys of ZDF rats after 6 months treatment; assay type: in vivo, rat; set-up: Armanni-Ebstein cells MEAN SEVERITY / Glomerulosclerosis MEAN SEVERITY / Atrophy: renal tubule MEAN SEVERITY / Casts: renal tubule MEAN SEVERITY: scale not given here
Procedure: The protein and creatinine excretion in the urine of male Zucker Diabetic Fatty (ZDF) Rats (ZDF Gmi fa/fa) and heterozygous control animals (ZDF Gmi −/+) of 10, 17, 27 and 37 weeks age was determined. In further groups, diabetic rats were chronically given either ramipril (1 mg/kg/day, in drinking water) or a compound of formula (II-B) (30 mg/kg/day, in food) over a period from 10 to 37 weeks. The animals were sacrificied after 37 weeks, and their kidneys examined histologically.
In the attached tables a summary of the findings on the kidneys after a treatment period of 6 months is listed.

Wistar rats = experiment: Albumin and creatinine excretion in Wistar rats (non-diabetic nephropathy); assay type: in vivo, rat; details: for Albumin/Creatinine: Wistar rats, start at age 6 months, mean
Procedure: The albumin and creatinine excretion in Wistar rats was determined. One group was left untreated, one was treated with the ACE/NEP inhibitor of formula (II-B) and one group was treated with the ACE inhibitor ramipril. Wistar rats are non-diabetic and develop proteinuria and structural kidney damage during adult life. Wistar rats are therefore a model for non-diabetic nephropathy. [table]

ZDF rats = experiment: RP-HPLC analysis of CML in kidney and heart of ZDF rats; assay type: in vivo, rat; details: for mean CML conc.: RP-HPLC, ZDF Placebo = 100
Procedure: Kidney AGE values were determined by Dot blot analysis (Stracke et al., Exp. Clin. Endocrinol. Diabets 2002, 109, 330-336) and Reversed-phase high performance liquid chromatography or RP-HPLC (Drusch et al., Food Chem. 1999, 65, 547-553).
[…] Two animals of each group were analyzed. Grinding of the kidney and heart was performed in liquid nitrogen using a freezer mill (Freezer 6750, C3 Analysetechnik GmbH). Hydrolysis of the organ samples was performed with 6 M hydrochloric acid (HCl) at 110° C. for 12 hours. Sample treatment with o-phthaldialdehyde (OPA) and RP-HPLC was performed as described in Drusch et al., Food Chem. 1999, 65, 547-553.

endothelial cells = experiment: NO and superoxide release from endothelial cells in rabbits fed an atherogenic diet; assay type: in vivo, White New Zealand rabbits; details: varied diet rabbits; mean ± SEM
Excerpt: It was shown in the atherogenic rabbit model (White New Zealand rabbits were fed with 0.25% cholesterol plus 3% coconut oil) that even a short 6 week period of an atherogenic diet leads to sustained endothelial dysfunction, even though the animals received a normal diet for 3 months thereafter.
The endothelium-dependent relaxation of isolated aortic rings of rabbits as well as the release of nitric oxide and superoxide from endothelial cells serve as measures of endothelial dysfunction.
• Groups: • Standard: 18 weeks normal diet • Atherogenic: 18 weeks atherogenic diet (3% Coconut oil+0.25% Cholesterol) • Varied diet (Var.): 6 weeks atherogenic diet+12 weeks normal diet • Varied Diet+ramipril: 6 weeks atherogenic diet+12 weeks normal diet+ramipril • Varied diet+compound (II-B): 6 weeks atherogenic diet+12 weeks normal diet+cpd. (II-B)
NO and O2^− are markers for endothelial function: increased relaxation and increased NO levels are beneficial, while increased O2^− formation inhibits the beneficial effects of NO.

[1] = kidneys, male fat ZDF rats, terminal sacrifice
[2] = kidneys, male fat ZDF rats, terminal sacrifice, examined: D1 9, D4 8
[3] = kidneys, male fat ZDF rats, terminal sacrifice, examined: D1 9, D4 8, listed as compound (II-B)

Dilatation: pelvis GRADE 2: number of animals (fat ZDF rats; rat, in vivo): 1
Dilatation: pelvis GRADE 3: number of animals (fat ZDF rats; rat, in vivo): 5
Dilatation: pelvis GRADE 4: number of animals (fat ZDF rats; rat, in vivo): 1
Dilatation: pelvis MEAN SEVERITY (fat ZDF rats; rat, in vivo): 3.0
Compound: CC(=O)S[C@H](C(=O)N[C@H]1Cc2ccccc2[C@H]2CCC[C@@H](C(=O)O)N2C1=O)C(C)C [cpd. (II-B)]
Armanni-Ebstein cells GRADE 2: number of animals (fat ZDF rats; [1]): 5
Armanni-Ebstein cells GRADE 3: number of animals (fat ZDF rats; [1]): 3
Armanni-Ebstein cells MEAN SEVERITY (fat ZDF rats; [1]): 2.4
Atrophy: renal tubule GRADE 1: number of animals (fat ZDF rats; [1]): 1
Atrophy: renal tubule GRADE 3: number of animals (fat ZDF rats; [1]): 1
Atrophy: renal tubule MEAN SEVERITY (fat ZDF rats; [1]): 2.0
Casts: renal tubule GRADE 1: number of animals (fat ZDF rats; [1]): 2
Casts: renal tubule GRADE 2: number of animals (fat ZDF rats; [1]): 1
Casts: renal tubule MEAN SEVERITY (fat ZDF rats; [1]): 1.3
Glomerulosclerosis GRADE 1: number of animals (fat ZDF rats; [1]): 1
Glomerulosclerosis GRADE 3: number of animals (fat ZDF rats; [1]): 1
Glomerulosclerosis MEAN SEVERITY (fat ZDF rats; [1]): 1.0
Armanni-Ebstein cells: number of animals with finding (total affected) (fat ZDF rats; [2]): 8
Atrophy: renal tubule: number of animals with finding (total affected) (fat ZDF rats; [2]): 2
Casts: renal tubule: number of animals with finding (total affected) (fat ZDF rats; [2]): 3
Glomerulosclerosis: number of animals with finding (total affected) (fat ZDF rats; [2]): 1
Atrophy: renal tubule: number of animals with finding (total affected) (fat ZDF rats; [3]): low incidences
Casts: renal tubule: number of animals with finding (total affected) (fat ZDF rats; [3]): low incidences
Glomerulosclerosis: number of animals with finding (total affected) (fat ZDF rats; [3]): not present
Albumin/Creatinine (Wistar rats; 6 weeks treatment): 18.07 mg/mmol
Albumin/Creatinine (Wistar rats; 12 weeks treatment): 21.21 mg/mmol
Albumin/Creatinine (Wistar rats; Basal): 130.45 mg/mmol
Nephroprotective effect compared with ramipril as determined by the extent of proteinuria (Wistar rats; non-diabetic model, in words): significantly higher nephroprotective effect than ramipril
mean CML conc. (ZDF rats; hearts of 17-week-old ZDF rats): 26%
mean CML conc. (ZDF rats; kidneys of 17-week-old ZDF rats): 55%
mean CML conc. (ZDF rats; kidneys of 37-week-old ZDF rats): 58%
CML concentration in the heart of 17-week-old ZDF rats (ZDF rats; in words): reduces
CML concentration in the kidneys of 17-week-old ZDF rats (ZDF rats; in words): reduces
CML concentration in the kidneys of 37-week-old ZDF rats (ZDF rats; in words): reduces
NO (endothelial cells): 329.19 ± 30.10 nM
O2^− (superoxide) (endothelial cells): 30.18 ± 6.00 nM
